Values quoted from earlier work, collected in patent US7368472B2, “1,2,4-Triaminobenzene derivatives useful for treating disorders of the central nervous system” (priority 2002, dated 2008).

Experiments:
[1] = tested on: electrically induced seizures, seizures induced chemically by pentylenetetrazole, picrotoxin and NMDA, DBA/2 mouse; conditions: oral and intraperitoneal administration, rats and mice
hippocampal kindling = conditions: rat
[2] = tested on: incidence of seizures in epileptic patients
[3] = tested on: kainic acid-induced status epilepticus; conditions: rat
[4] = tested on: animal models of anxiety-like behaviour; conditions: in vivo
[5] = tested on: amygdala kindling model of complex partial seizures; conditions: in vivo
[6] = tested on: K(+) current in neuronal cells

CCOC(=O)Nc1ccc(NCc2ccc(F)cc2)cc1N [Retigabine, N-(2-amino-4-(4-fluorobenzylamino)-phenyl) carbamic acid ethyl ester]
activity in anticonvulsant tests [1]: active
progression of hippocampal kindling (hippocampal kindling): delay the progression of hippocampal kindling
reduction of seizure incidence in clinical trials [2]: effectiveness in reducing the incidence of seizures
neuroprotection after status epilepticus [3]: prevent limbic neurodegeneration and the expression of markers of apoptosis
activity in models of anxiety-like behaviour [4]: active
activity in amygdala kindling model [5]: active
activation of K(+) current [6]: activate a K(+) current
